Measured values from US5523457A, “Retinoid-like compounds” (Bristol-Myers Squibb Company, priority 1995, dated 1996).
pIC50: −log10 of the molar value. Like-named read-outs stand apart in the source and are kept apart here.

Assays:
[1] = test system: lung line L2987; assay: Cytotoxicity assay (alamarBlue cell viability), lung line L2987, experiment 2; type: cell-based; conditions: Homo sapiens
Protocol: FIG. 1 is the cytotoxicity dose response curves for lung line L2987. […] Briefly, the assayed involved plating 1000 cells per well in a volume of 120 μL in a 96 well flat-bottom dish (Corning) on day -1. Twenty-four hours later the appropriate dilution of a compound of formula I was added in a volume of 30 μL complete medium (final volume 150 μL). The plates were sealed with a plate sealer (Dynatech Labs) to prevent evaporation. On day 5 the mylar film was removed and 15 μL of sterile alamarBlue was added to each well and the cells were incubated 37° C. 5% CO2 for two hours. Using a Vmax plate reader the optical density for each well was determined having the […]. The 100% signal was determined for cells grown in complete medium containing only 0.5% DMSO. All wells were set-up in triplicate and the mean values were plotted in FIG. 1.

[2] = test system: second primary tumors in squamous-cell carcinoma of the head and neck; conditions: Hong et al., N. Engl. J. Med., 1990; cited from earlier work
[3] = L2987 lung line, 1000 cells per well, compound added 24 h after plating, read on day 5 with alamarBlue, triplicate wells, read-out: IC50 values for L2987 experiment 2

| Compound | pIC50 [1, 3] | also measured |
| --- | --- | --- |
| CC1=C(/C=C/C(C)=C/C=C/C(C)=C/C(=O)O)C(C)(C)CCC1 [All trans retinoic acid, reference compound] | – | pIC50 ([1]; L2987, read-out: IC50 values for L2987 experiment 2): 4.17 |
| O=C(O)c1ccc(NC(=O)c2ccc3cccc(-c4ccccc4)c3c2)cc1 [I^2' a, 4-[[(8-phenyl-2-naphthalenyl)carbonyl]amino]benzoic acid] | 4.14 | – |
| Cc1cc(C)cc(-c2cccc3ccc(C(=O)Nc4ccc(C(=O)O)cc4)cc23)c1 [I^2' b, 4-[[[8(3,5-Dimethylphenyl)-2-naphthalenyl]carbonyl]amino]benzoic acid] | 4.41 | – |
| Cc1ccc(-c2cccc3ccc(C(=O)Nc4ccc(C(=O)O)cc4)cc23)cc1C [I^2' f, 4-[[[8-(3,4-Dimethylphenyl)-2-naphthalenyl]carbonyl]amino]benzoic acid] | 4.31 | – |
| Cc1ccc(-c2cccc3ccc(C(=O)Nc4ccc(C(=O)O)cc4)cc23)c(C)c1 [I^2' g, 4-[[[8-(2,4 -Dimethylphenyl)-2-naphthalenyl]carbonyl]amino]benzoic acid] | 4.27 | – |
| CC1=C(/C=C/C(C)=C/C=C/C(C)=C\C(=O)O)C(C)(C)CCC1 [Isotretinoin] | – | prevention of second primary tumors in squamous-cell carcinoma of the head and neck [2]: shown to be useful in prevention of second primary tumors |
